Data on 1 substance can be found in patent US20130011493A1, “PLANT DISEASE CONTROLLING COMPOSITION AND METHOD FOR CONTROLLING PLANT DISEASE” (SUMITOMO CHEMICAL COMPANY, LIMITED, priority 2010, published 2013).

This test deals with gray mold fungus (Botrytis cinerea). In words: cucumber leaf disk preventive test against gray mold fungus. It is filed as in vivo. Particulars: 15° C., four days. As for the experimental part: To a SUS beaker are added 30 parts of the present compound (racemate), 5 parts of Soprophor FLK (polyoxyethylene tristyrylphenyl ether phosphate, produced by Rhodia Nicca Ltd.), 65 parts of ion-exchange water and 150 parts of glass beads (1.0 mm diameter). The mixture is subjected to grinding at a velocity of 1000 rpm with cooling to 10° C., and thereafter the glass beads are separated, so as to obtain a flowable formulation comprising the present compound (racemate).
True leaf of cucumber is punched out with cork borer to 13 mm in diameter to prepare a leaf disk. In 24 well microwell plate that is dispensed with 1 ml 0.8% water agar, the leaf disk is placed such that the upper side of the leaf is in an upward direction. […]
After confirming that the testing medical solution is dried, conidium of gray mold fungus (Botrytis cinerea) is suspended into potato dextrose broth (DIFCO) in a density of about 10^5 conidium/mL and is then subjected to a spray inoculation. After leaving to stand the leaf disk in a growth chamber set up at 15° C. for four days, an onset area on the leaf is measured and then calculated an onset area rate (hereinafter, referred to as an onset area rate of treated group). […]
A preventive value is calculated from the above onset area rate of treated group and the onset area rate of non-treated group by the following equation: […]

Turning to copper hydrochloride, the “preventive value (%)” value is 10% (copper hydrochloride alone 0.5 ppm) and 15% (copper hydrochloride alone 5.0 ppm).
